Reference: a compilation of properties of binary mixtures (doi:10.2298/jsc160317058s)

Test: xn = mol fraction of the nth substance listed
Settings: 100 kPa

Nc1ccccc1 + CCCC[n+]1ccn(C)c1.O=S(=O)([O-])C(F)(F)F
x1 = 1
Settings	viscosity [mPa·s]
288.15 K	5.32
293.15 K	4.41
298.15 K	3.74
303.15 K	3.2
308.15 K	2.78
313.15 K	2.45
318.15 K	2.159
328.15 K	1.738
333.15 K	1.577

CCCC[n+]1ccn(C)c1.O=S(=O)([O-])C(F)(F)F + Nc1ccccc1
viscosity [mPa·s]
Settings	288.15 K	293.15 K	298.15 K	303.15 K	308.15 K	313.15 K	318.15 K	323.15 K	328.15 K	333.15 K
x2 = 0	–	102	80.1	64	52.2	42.8	35.7	30	25.5	22
x2 = 0.1	110.3	85.3	67.5	54.6	44.4	36.6	30.6	25.9	22.17	19.07
x2 = 0.1995	90.9	70.6	–	45.5	37.2	30.7	25.8	21.9	18.82	–
x2 = 0.3002	–	–	45.9	–	30.6	25.4	21.47	–	15.71	13.63
x2 = 0.3996	–	–	–	–	–	–	–	15.11	13.02	11.38
x2 = 0.8999	8.95	7.31	6.18	5.26	4.54	3.93	3.5	–	–	2.47

CN(C)c1ccccc1 + CCCC[n+]1ccn(C)c1.O=S(=O)([O-])C(F)(F)F
viscosity [mPa·s]
Settings	288.15 K	293.15 K	298.15 K	303.15 K	308.15 K	313.15 K	318.15 K	323.15 K	328.15 K	333.15 K
x1 = 0.1	97.6	75.7	59.9	48.1	39.5	32.2	–	23	–	–
x1 = 0.2	72.8	57.1	45.7	37	–	–	21.46	18.3	15.74	13.64
x1 = 0.2998	–	42.8	34.8	28.4	23.9	19.91	17.1	14.72	12.77	11.16
x1 = 0.397	–	31.5	–	21.69	18.27	15.46	13.4	11.63	10.19	8.98
x1 = 0.5045	26.1	21.17	17.76	14.77	12.85	11.04	9.68	8.5	7.52	–
x1 = 0.5996	16.87	13.93	11.92	10.23	8.87	7.69	6.84	6.08	5.43	4.9
x1 = 0.6997	–	8.5	7.42	6.47	5.71	–	–	4.09	3.7	3.36
x1 = 0.7994	6	5.21	4.62	4.1	3.68	3.3	3.01	2.75	2.52	2.31
x1 = 0.8945	3.27	2.91	–	2.37	2.164	1.988	–	1.692	–	–
x1 = 1	–	–	1.302	1.206	1.123	1.056	0.981	–	0.865	0.819

CCCC[n+]1ccn(C)c1.O=S(=O)([O-])C(F)(F)F + CN(C)c1ccccc1
x2 = 0
Settings	viscosity [mPa·s]
288.15 K	132.7
293.15 K	102
298.15 K	80.1
303.15 K	64
313.15 K	42.8
318.15 K	35.7
323.15 K	30
328.15 K	25.5
333.15 K	22
